Measurements as given in patent US20120196324A1, “Method for Producing an Antifungal Peptide in a Filamentous Fungal Host Cell” (NOVOZYMES A/S, priority 2007, published 2012).

What was measured:
[1] = tested on: Pichia pastoris gcs-deletion mutants; conditions: glucosylceramide synthetase deficient Pichia pastoris; cited from earlier work
[2] = tested on: Candida albicans gcs-deletion mutants; conditions: glucosylceramide synthetase deficient Candida albicans; cited from earlier work
Aspergillus oryzae BECh2 = experiment: Tolerance to ETD151: growth in YCM with ETD151; assay type: cell-based; conditions: YCM with different amounts of ETD151 (maximum 5815 mg/L), 6 days
Experimental: (§1) Selected strains were subjected to YCM with 0-5815 mg/L ETD151 for 6 days in order to test tolerance to ETD151.
(§2) To test the tolerance to ETD151, ToC1512, BECh2 and the 7 gcs^− mutants were grown in YCM with different amounts of ETD151 (maximum 5815 mg/L). […] One of the gcs^− mutants (no. 18) was hereafter selected and named PtSL1.

[3] = tested on: Aspergillus oryzae ToC1512; experiment: Tolerance to ETD151: growth in YCM with ETD151; assay type: cell-based; conditions: YCM with different amounts of ETD151 (maximum 5815 mg/L), 6 days
Experimental: as §1, §2

[4] = tested on: gcs- mutants of A. oryzae ToC1512; experiment: Tolerance to ETD151: growth in YCM with ETD151; assay type: cell-based, Aspergillus oryzae; conditions: high concentrations of ETD151 (maximum 5815 mg/L), 6 days, 7 gcs- mutants
Experimental: as §1, §2

Candida utilis = experiment: Bioassay (plate assay, growth inhibition seen as clearing zones); assay type: cell-based; conditions: ETD151 expressed by BECh2 transformants (pPtSL4); Candida utilis as target organism
Experimental: ETD151 was diluted to 58 μg/ml in peptide dilution buffer (0.1% BSA, 0.01% Acetic Acid) and further on to 6 μg/ml and 0.6 μg/ml and used as control. Candida utilis was grown on YPD plates, A. oryzae on Cove N medium slants. An inoculum of fungal growth was resuspended in 0.1% Tween to an optical density of approx. 1 McFarland Unit. A NUNC-tube with 15 ml ⅓ PD agarose at approx. 42° C. was inoculated with approx. 6×10^6 CFU, mixed thoroughly and poured into a sterile 9 cm square dish (Falcon 351112) on a levelling table and allowed to solidify and set for 30 minutes. Ten μl of each of the peptide dilutions was added to the surface of the plate. The plates were incubated at 30° C. (or 37° C. as appropriate). The next day, growth was detected either by observing the inhibition zones by oblique illumination (or by adding 3 ml of a 3 mM MTT solution and leaving the plate for 1-2 hours at room temperature).
BECh2 was transformed with plasmid pPtSL4 and subjected to amdS medium. amdS resistant colonies were isolated as spores from single sporangies and subjected to amdS medium twice. From 45 BECh2 transformants, 43 were subjected to a Bioassay as described using Candida utilis as target organism and to SDS gel electrophoresis.

| Substance | susceptibility of gcs-deletion mutants [1] | susceptibility of gcs-deletion mutants [2] | growth of strain in presence of ETD151 (Aspergillus oryzae BECh2) | growth of strain in presence of ETD151 [3] | growth of strain in presence of ETD151 [4] | growth inhibition in plate Bioassay (Candida utilis) |
| --- | --- | --- | --- | --- | --- | --- |
| RsAFP2: antifungal defensin (QKLCQRPSGTWSGVCGNNNACKNQCIRLEKARHGSCNYVFPAHKCICYFPC; UniProt P30230 30-80, looked up) | resistant | resistant |  |  |  |  |
| ETD151: heliomycin derivative, antifungal defensin peptide shown in SEQ ID NO: 7, expressed in Aspergillus oryzae (DKLIGSCVWGAVNYTSNCRAECKRRGYKGGHCGSFANVNCWCET; heliomycin derivative) |  |  | grew badly | did not grow at all | grew very well | clearing zones |
